The text below walks through data of patent publication US20060004004A1, “Novel gamma secretase inhibitors” (Schering Corporation, priority 2004, published 2006).

Values joined by “and” are separate entries in the source; they are usually repeats but may differ in a detail not shown here. Identical values can stand only once.

For one assay, the target named is T1, γ-secretase (Homo sapiens, UniProt P49768).
T1 construct: endogenous in cells; host or cells: membranes of 293 cells (T-REx, clone pTRE.15) with tetracycline-induced SPC99-Lon
The assay is described as follows: Gamma secretase activity, membrane assay with Aβ 40 / Aβ 42 ECL immunoassay (Zhang et al.). As to conditions: membranes of 293 cells expressing SPC99-Lon (clone pTRE.15), 37° C., 1 h; read-out: IC50 (μM), γ-secretase inhibitory activity. In kind it is biochemical. The text has this: Antibodies W02, G2-10, and G2-11 were obtained from Dr. Konrad Beyreuther (University of Heidelberg, Heidelberg, Germany). W02 recognizes residues 5-8 of Aβ peptide, while G2-10 and G2-11 recognize the specific C-terminal structure of Aβ 40 and Aβ 42, respectively. Biotin-4G8 was purchased from Senetec (St. Louis, Mo.). All tissue culture reagents used in this work were from Life Technologies, Inc., unless otherwise specified. Pepstatin A was purchased from Roche Molecular Biochemicals; DFK167 was from Enzyme Systems Products (Livermore, Calif.).
Upon insertion into the membrane, the 17 amino acid signal peptide is processed, leaving an additional leucine at the N-terminus of Aβ. SPC99-lon was cloned into the pcDNA4/TO vector (Invitrogen) and transfected into 293 cells stably transfected with pcDNA6/TR, which is provided in the T-REX system (Invitrogen). The transfected cells were selected in Dulbecco's modified Eagle's media (DMEM) supplemented with 10% fetal bovine serum, 100 units/mL penicillin, 100 µg/mL streptomycin, 250 µg/mL zeocin, and 5 µg/mL blasticidin (Invitrogen). Colonies were screened for Aβ production by inducing C99 expression with […] tetracycline for 16-20 h and analyzing conditioned media with a sandwich immunoassay (see below). One of the clones, designated as pTRE.15, was used in these studies.
C99 expression in cells was induced with […] tetracycline for 20 h. The cells were pretreated with […] 12-myristate 13-acetate (PMA) and […] brefeldin A (BFA) for 5-6 h at 37° C. before harvesting. The cells were washed 3 times with cold phosphate-buffered saline (PBS) and harvested in buffer A containing 20 mM Hepes (pH 7.5), 250 mM sucrose, 50 mM KCl, 2 mM EDTA, 2 mM EGTA, and Complete protease inhibitor tablets (Roche Molecular Biochemicals). The cell pellets were flash-frozen in liquid nitrogen and stored at −70° C. before use.
To make membranes, the cells were resuspended in buffer A and lysed in a nitrogen bomb at 600 psi. The cell lysate was centrifuged at 1500 g for 10 min to remove nuclei and large cell debris. The supernatant was centrifuged at 100000 g for 1 h. The membrane pellet was resuspended in buffer A plus 0.5 M NaCl, and the membranes were collected by centrifugation at 200000 g for 1 h. The salt-washed membrane pellet was washed again in buffer A and centrifuged at 100000 g for 1 h. The final membrane pellet was resuspended in a small volume of buffer A using a Teflon-glass homogenizer. The protein concentration was determined, and membrane aliquots were flash-frozen in liquid nitrogen and stored at −70° C.
γ-Secretase Reaction and Aβ Analysis To measure γ-secretase activity, membranes were incubated at 37° C. for 1 h in […] of buffer containing 20 mM Hepes (pH 7.0) and 2 mM EDTA. At the end of the incubation, Aβ 40 and Aβ 42 were measured using an electrochemiluminescence (ECL)-based immunoassay. Aβ 40 was identified with antibody pairs TAG-G2-10 and biotin-W02, while Aβ 42 was identified with TAG-G2-11 and biotin-4G8. The ECL signal was measured using an ECL-M8 instrument (IGEN International, Inc.) according to the manufacturer's instructions. The data presented were the means of the duplicate or triplicate measurements in each experiment.
In general, IC50 refers to the concentration at which inhibition is half-maximal. With `O=C(CC1([C@@H]2CCC[C@H](c3cc(F)cc(F)c3)N2S(=O)(=O)c2ccc(Cl)cc2)CC1)N1CCN(CCO)CC1` [Example 1], the half-inhibitory concentration (IC50) amounted to 0.0028 µM.

On to `O=C(CC1(C2CCCC(c3cc(F)cc(F)c3)N2S(=O)(=O)c2ccc(Cl)cc2)CC1)N1CCCCC1` (centres unmarked) [Example 2], for which the IC50 was determined as 0.0164 µM. Same read-out and setting: in the case of `O=C(CC1(C2CCCC(c3cc(F)cc(F)c3)N2S(=O)(=O)c2ccc(Cl)cc2)CC1)N1CC[C@H](O)C1` (some centres unmarked) [Example 3] it was 0.0132 µM.

Turning to `O=C(CC1(C2CCCC(c3cc(F)cc(F)c3)N2S(=O)(=O)c2ccc(Cl)cc2)CC1)N1CCC(N2CCCCC2)CC1` (centres unmarked) [Example 4], the IC50 came to 0.0014 µM. Same read-out and setting: in the case of `O=C(CC1([C@H]2CCC[C@@H](c3cc(F)cc(F)c3)N2S(=O)(=O)c2ccc(Cl)cc2)CC1)N1CCC[C@H]1CO` [Example 5] it was 0.0196 µM; in that of `O=S(=O)(CC1([C@@H]2CCC[C@H](c3cc(F)cc(F)c3)N2S(=O)(=O)c2ccc(Cl)cc2)CC1)N1CCC(N2CCCCC2)CC1` [Example 19], 0.0119 µM; in that of `O=S(=O)(CC1([C@H]2CCC[C@@H](c3cc(F)cc(F)c3)N2S(=O)(=O)c2ccc(Cl)cc2)CC1)N1CC[C@H](O)C1` [Example 20], 0.0151 µM. Still for that read-out and setting: in the case of `CN1CCN(S(=O)(=O)CC2([C@H]3CCC[C@@H](c4cc(F)cc(F)c4)N3S(=O)(=O)c3ccc(Cl)cc3)CC2)CC1` [Example 21] it was 0.0117 µM; in that of `O=S(=O)(CC1([C@H]2CCC[C@@H](c3cc(F)cc(F)c3)N2S(=O)(=O)c2ccc(Cl)cc2)CC1)N1CCC[C@H]1CO` [Example 22], 0.0164 µM. Still for that read-out and setting: in the case of `O=S(=O)(CC1([C@H]2CCC[C@@H](c3cc(F)cc(F)c3)N2S(=O)(=O)c2ccc(Cl)cc2)CC1)N1CCN(CCO)CC1` [Example 23] it was 0.0124 µM. In the case of `O=S(=O)(CC1([C@H]2CCC[C@@H](c3cc(F)cc(F)c3)N2S(=O)(=O)c2ccc(Cl)cc2)CC1)N1CCC(N2CCOCC2)CC1` [Example 24], the IC50 was 0.0145 µM. Regarding `O=C(C(O)C1([C@H]2CCC[C@@H](c3cc(F)cc(F)c3)N2S(=O)(=O)c2ccc(Cl)cc2)CC1)N1CCC(N2CCCCC2)CC1` (some centres unmarked) [Example 25], the concentration for half-maximal inhibition (IC50) is 0.0049 µM.

For `CCC1(O)CC2CCC(C1)N2C(=O)C(O)C1([C@H]2CCC[C@@H](c3cc(F)cc(F)c3)N2S(=O)(=O)c2ccc(Cl)cc2)CC1` (some centres unmarked) [Example 29], the IC50 stood at 0.0068 µM. Same read-out and setting: in the case of `CCC1(O)CC2CCC(C1)N2C(=O)CC1([C@H]2C[C@@H](O)C[C@@H](C3CC3)N2S(=O)(=O)c2ccc(Cl)cc2)CC1` (some centres unmarked) [Example 48] it was 0.0048 µM.

The same assay, now with this note: same membrane assay; ranges given as 'about'; read-out: IC50 values within the range.
With `O=C(CC1([C@@H]2CCC[C@H](c3cc(F)cc(F)c3)N2S(=O)(=O)c2ccc(Cl)cc2)CC1)N1CCN(CCO)CC1` [Example 1], the IC50 is 0.001 to 0.2 µM and 0.001 to 0.02 µM. Take `O=C(CC1(C2CCCC(c3cc(F)cc(F)c3)N2S(=O)(=O)c2ccc(Cl)cc2)CC1)N1CCCCC1` (centres unmarked) [Example 2]: the IC50 was 0.001 to 0.2 µM and 0.001 to 0.02 µM.

For the molecule `O=C(CC1(C2CCCC(c3cc(F)cc(F)c3)N2S(=O)(=O)c2ccc(Cl)cc2)CC1)N1CC[C@H](O)C1` (some centres unmarked) [Example 3], the concentration for half-maximal inhibition (IC50) is 0.001 to 0.2 µM and 0.001 to 0.02 µM.

For `O=C(CC1(C2CCCC(c3cc(F)cc(F)c3)N2S(=O)(=O)c2ccc(Cl)cc2)CC1)N1CCC(N2CCCCC2)CC1` (centres unmarked) [Example 4], the IC50 was 0.001 to 0.2 µM and 0.001 to 0.02 µM. Still for that read-out and setting: in the case of `O=C(CC1([C@H]2CCC[C@@H](c3cc(F)cc(F)c3)N2S(=O)(=O)c2ccc(Cl)cc2)CC1)N1CCC[C@H]1CO` [Example 5] it was 0.001 to 0.2 µM and 0.001 to 0.02 µM.

In the case of `O=C(CC1([C@H]2CCC[C@@H](c3cc(F)cc(F)c3)N2S(=O)(=O)c2ccc(Cl)cc2)CC1)N1CCCC1` [Example 6], the IC50 was 0.001 to 0.2 µM. On the same count and under the same terms, in the case of `O=C(N1CCC[C@H]1CO)C1([C@H]2CCC[C@@H](c3cc(F)cc(F)c3)N2S(=O)(=O)c2ccc(Cl)cc2)CC1` [Example 7] it was 0.001 to 0.2 µM; in that of `O=C(N1CCCC1)C1([C@H]2CCC[C@@H](c3cc(F)cc(F)c3)N2S(=O)(=O)c2ccc(Cl)cc2)CC1` [Example 8], 0.001 to 0.2 µM. Still for that read-out and setting: in the case of `O=C(N1CCC(N2CCCCC2)CC1)C1([C@H]2CCC[C@@H](c3cc(F)cc(F)c3)N2S(=O)(=O)c2ccc(Cl)cc2)CC1` [Example 9] it was 0.001 to 0.2 µM; in that of `O=C(N1CCN(CCO)CC1)C1([C@H]2CCC[C@@H](c3cc(F)cc(F)c3)N2S(=O)(=O)c2ccc(Cl)cc2)CC1` [Example 10], 0.001 to 0.2 µM; in that of `C[C@@H]1CN(CCO)CCN1C(=O)C1([C@H]2CCC[C@@H](c3cc(F)cc(F)c3)N2S(=O)(=O)c2ccc(Cl)cc2)CC1` [Example 11], 0.001 to 0.2 µM. On the same count and under the same terms, in the case of `O=C(N1C[C@@H](N2CCCCC2)C[C@@H]1CO)C1([C@H]2CCC[C@@H](c3cc(F)cc(F)c3)N2S(=O)(=O)c2ccc(Cl)cc2)CC1` [Example 17] it was 0.001 to 0.2 µM; in that of `O=S(=O)(CC1([C@@H]2CCC[C@H](c3cc(F)cc(F)c3)N2S(=O)(=O)c2ccc(Cl)cc2)CC1)N1CCC(N2CCCCC2)CC1` [Example 19], 0.001 to 0.2 µM and 0.001 to 0.02 µM; in that of `O=S(=O)(CC1([C@H]2CCC[C@@H](c3cc(F)cc(F)c3)N2S(=O)(=O)c2ccc(Cl)cc2)CC1)N1CC[C@H](O)C1` [Example 20], 0.001 to 0.2 µM and 0.001 to 0.02 µM. Regarding `CN1CCN(S(=O)(=O)CC2([C@H]3CCC[C@@H](c4cc(F)cc(F)c4)N3S(=O)(=O)c3ccc(Cl)cc3)CC2)CC1` [Example 21], the IC50 was 0.001 to 0.2 µM and 0.001 to 0.02 µM. Consider `O=S(=O)(CC1([C@H]2CCC[C@@H](c3cc(F)cc(F)c3)N2S(=O)(=O)c2ccc(Cl)cc2)CC1)N1CCC[C@H]1CO` [Example 22], for which the IC50 was 0.001 to 0.2 µM and 0.001 to 0.02 µM. As for `O=S(=O)(CC1([C@H]2CCC[C@@H](c3cc(F)cc(F)c3)N2S(=O)(=O)c2ccc(Cl)cc2)CC1)N1CCN(CCO)CC1` [Example 23], the half-inhibitory concentration (IC50) is 0.001 to 0.2 µM and 0.001 to 0.02 µM. For `O=S(=O)(CC1([C@H]2CCC[C@@H](c3cc(F)cc(F)c3)N2S(=O)(=O)c2ccc(Cl)cc2)CC1)N1CCC(N2CCOCC2)CC1` [Example 24], the half-maximal inhibitory concentration (IC50) is 0.001 to 0.2 µM and 0.001 to 0.02 µM.

Turning to `O=C(C(O)C1([C@H]2CCC[C@@H](c3cc(F)cc(F)c3)N2S(=O)(=O)c2ccc(Cl)cc2)CC1)N1CCC(N2CCCCC2)CC1` (some centres unmarked) [Example 25], the IC50 was 0.001 to 0.2 µM and 0.001 to 0.02 µM. On the same count and under the same terms, in the case of `O=C(C(O)C1([C@H]2CCC[C@@H](c3cc(F)cc(F)c3)N2S(=O)(=O)c2ccc(Cl)cc2)CC1)N1CCC[C@H]1CO` (some centres unmarked) [Example 26] it was 0.001 to 0.2 µM. Still for that read-out and setting: in the case of `O=C(C(O)C1([C@H]2CCC[C@@H](c3cc(F)cc(F)c3)N2S(=O)(=O)c2ccc(Cl)cc2)CC1)N1CC[C@H](O)C1` (some centres unmarked) [Example 27] it was 0.001 to 0.2 µM. Still for that read-out and setting: in the case of `CCC1(OC)CC2CCC(C1)N2C(=O)C(O)C1([C@H]2CCC[C@@H](c3cc(F)cc(F)c3)N2S(=O)(=O)c2ccc(Cl)cc2)CC1` (some centres unmarked) [Example 28] it was 0.001 to 0.2 µM and 0.001 to 0.02 µM; in that of `CCC1(O)CC2CCC(C1)N2C(=O)C(O)C1([C@H]2CCC[C@@H](c3cc(F)cc(F)c3)N2S(=O)(=O)c2ccc(Cl)cc2)CC1` (some centres unmarked) [Example 29], 0.001 to 0.2 µM and 0.001 to 0.02 µM. As to `O=C(CC1([C@H]2CCC[C@@H](C3CC3)N2S(=O)(=O)c2ccc(Cl)cc2)CC1)N1CCN2CCCC2C1` (some centres unmarked) [Example 44], the IC50 was in the range of 0.001 to 0.2 µM.

With `O=C(CC1([C@H]2C[C@@H](O)C[C@@H](C3CC3)N2S(=O)(=O)c2ccc(Cl)cc2)CC1)N1CCC(N2CCCCC2)CC1` [Example 46], the 50% inhibitory concentration (IC50) is 0.001 to 0.02 µM and 0.001 to 0.2 µM. On the same count and under the same terms, in the case of `O=C(CC1([C@H]2C[C@@H](O)C[C@@H](C3CC3)N2S(=O)(=O)c2ccc(Cl)cc2)CC1)N1CC[C@@H](O)C1` [Example 47] it was 0.001 to 0.2 µM; in that of `CCC1(O)CC2CCC(C1)N2C(=O)CC1([C@H]2C[C@@H](O)C[C@@H](C3CC3)N2S(=O)(=O)c2ccc(Cl)cc2)CC1` (some centres unmarked) [Example 48], 0.001 to 0.02 µM and 0.001 to 0.2 µM.
